# Measurements reported in patent US7256199B1, “Pyrimidone derivatives” (Mitsubishi Chemical Corporation, priority 1998, dated 2007).
# Where a name gives a salt, the structure may show the parent alone.
# Target: T1, bovine cerebral TPK1 (Bos taurus, UniProt A0A3Q1MT31)
# T1 construct: Against P-GS1 Phosphorylation by Bovine Cerebral TPK1; from tissue; host or cells: bovine cerebrum (brain)
# Test: Inhibitory activity against P-GS1 phosphorylation by bovine cerebral TPK1
# Type: biochemical
# Details: 41.7 μM [γ-32P] ATP, 25° C., 2 hours, pH 6.5
# Description: Test Example: Inhibitory Activity of the Medicament of the Present Invention Against P-GS1 Phosphorylation by Bovine Cerebral TPK1
# A mixture containing 100 mM MES-sodium hydroxide (pH 6.5), 1 mM magnesium acetate, 0.5 mM EGTA, 5 mM β-mercaptoethanol, 0.02% Tween 20, 10% glycerol, 12 μg/ml P-GS1, 41.7 μM [γ-^32P] ATP (68 kBq/ml), bovine cerebral TPK1 and a compound shown in Table (a final mixture contained 1.7% DMSO deriving from a solution of a test compound prepared in the presence of 10% DMSO) was used as a reaction system. The phosphorylation was started by adding ATP, and the reaction was conducted at 25° C. for 2 hours, and then stopped by adding 21% perchloric acid on ice cooling. The reaction mixture was centrifuged at 12,000 rpm for 5 minutes and adsorbed on P81 paper (Whatmann), and then the paper was washed four times with 75 mM phosphoric acid, three times with water and once with acetone. The paper was dried, and the residual radioactivity was measured using a liquid scintillation counter.
# T1 sequence (A0A3Q1MT31 1-419): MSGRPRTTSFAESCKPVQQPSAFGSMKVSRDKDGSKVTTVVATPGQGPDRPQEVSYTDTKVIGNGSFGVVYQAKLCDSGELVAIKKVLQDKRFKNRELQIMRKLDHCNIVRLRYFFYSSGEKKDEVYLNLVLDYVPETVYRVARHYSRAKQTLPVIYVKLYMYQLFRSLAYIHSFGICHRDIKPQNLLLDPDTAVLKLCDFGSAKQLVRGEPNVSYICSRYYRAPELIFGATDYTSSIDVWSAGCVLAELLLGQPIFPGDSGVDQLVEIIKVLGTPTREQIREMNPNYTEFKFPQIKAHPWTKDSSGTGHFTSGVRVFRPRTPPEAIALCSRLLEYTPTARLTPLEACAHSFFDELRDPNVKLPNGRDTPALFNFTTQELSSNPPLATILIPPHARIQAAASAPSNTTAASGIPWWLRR
row,Compound,IC50
1,"Cc1ccccc1Cc1nc(-c2ccncc2)cc(=O)[nH]1 [Example 29, 2-(2-methylbenzyl)-6-(4-pyridyl)pyrimidin-4-one]",1400 nM
2,"O=c1cc(-c2ccncc2)nc(-c2ccncc2)[nH]1 [Example 38, 2,6-di(4-pyridyl)pyrimidin-4-one]",1800 nM
3,"O=c1cc(-c2ccncc2)nc(Cc2cccc(-c3ccccc3)c2)[nH]1 [Example 96, 2-(3-phenylbenzyl)-6-(4-pyridyl)pyrimidin-4-one]",770 nM
4,"CCCCc1nc(-c2ccncc2)cc(=O)[nH]1 [Example 6, 2-butyl-6-(4-pyridyl)pyrimidin-4-one]",1300 nM
5,"O=c1cc(-c2ccncc2)nc(N2CCOCC2)[nH]1 [Example 82, 2-(4-morpholinyl)-6-(4-pyridyl)pyrimidin-4-one]",4300 nM
6,"O=c1cc(-c2ccncc2)nc(-c2cccnc2)[nH]1 [Example 1, 2-(3-pyridyl)-6-(4-pyridyl)pyrimidin-4-one]",2300 nM
7,"O=c1cc(-c2ccncc2)nc(Cc2ccccc2)[nH]1 [Example 28, 2-benzyl-6-(4-pyridyl)pyrimidin-4-one]",1300 nM
8,"O=c1cc(-c2ccncc2)nc(-c2ccc([N+](=O)[O-])cc2)[nH]1 [Example 24, 2-(4-nitrophenyl)-6-(4-pyridyl)pyrimidin-4-one]",5300 nM
9,"O=c1cc(-c2ccncc2)nc(NCCCO)[nH]1 [Example 86, 2-(3-hydroxypropylamino)-6-(4-pyridyl)pyrimidin-4-one]",10000 nM
10,"CCN(CC)c1nc(-c2ccncc2)cc(=O)[nH]1 [Example 71, 2-(diethylamino)-6-(4-pyridyl)pyrimidin-4-one]",1100 nM
11,"O=c1cc(-c2ccncc2)nc(CCc2ccccc2)[nH]1 [Example 35, 2-(2-phenylethyl)-6-(4-pyridyl)pyrimidin-4-one]",8900 nM
12,"O=c1cc(-c2ccncc2)nc(-c2ccccc2)[nH]1 [Example 12, 2-phenyl-6-(4-pyridyl)pyrimidin-4-one]",1800 nM
13,2-(ethylphenylamino)-6-(4-pyridyl)pyrimidin-4-one [Example 89],2300 nM
14,"O=c1cc(-c2ccncc2)nc(NCc2ccccc2)[nH]1 [Example 80, 2-benzylamino-6-(4-pyridyl)pyrimidin-4-one]",1100 nM
15,"CN(Cc1ccccc1)c1nc(-c2ccncc2)cc(=O)[nH]1 [Example 79, 2-(N-benzyl-N-methylamino)-6-(4-pyridyl)pyrimidin-4-one]",2800 nM
16,"CC(C)Cc1nc(-c2ccncc2)cc(=O)[nH]1 [Example 7, 2-isobutyl-6-(4-pyridyl)pyrimidin-4-one]",2400 nM
17,"O=c1cc(-c2ccncc2)nc(N2CCCC2)[nH]1 [Example 87, 2-(1-pyrrolidinyl)-6-(4-pyridyl)pyrimidin-4-one]",2600 nM
18,"Cc1cccc(-c2nc(-c3ccncc3)cc(=O)[nH]2)c1 [Example 15, 6-(4-pyridyl)-2-(3-tolyl)pyrimidin-4-one]",2200 nM
19,2-(butoxyphenylamino)-6-(4-pyridyl)pyrimidin-4-one [Example 90],6300 nM
20,"O=c1cc(-c2ccncc2)nc(C2CCCCC2)[nH]1 [Example 83, 2-cyclohexyl-6-(4-pyridyl)pyrimidin-4-one]",2800 nM
21,"CC(C)CN(C)c1nc(-c2ccncc2)cc(=O)[nH]1 [Example 84, 2-(N-isobutyl-N-methylamino)-6-(4-pyridyl)pyrimidin-4-one]",1100 nM
22,"O=c1cc(-c2ccncc2)nc(Cc2ccccc2Cl)[nH]1 [Example 68, 2-(2-chlorobenzyl)-6-(4-pyridyl)pyrimidin-4-one]",1300 nM

row,Compound,IC50
1,"O=c1cc(-c2ccncc2)nc(NCC2CCCCC2)[nH]1 [Example 88, 2-cyclohexylmethylamino-6-(4-pyridyl)pyrimidin-4-one]",1400 nM
2,"Cc1ccc(-c2nc(-c3ccncc3)cc(=O)[nH]2)cc1 [Example 16, 6-(4-pyridyl)-2-(4-tolyl)pyrimidin-4-one]",4800 nM
3,"O=c1cc(-c2ccncc2)nc(-c2cccc(Br)c2)[nH]1 [Example 19, 2-(3-bromophenyl)-6-(4-pyridyl)pyrimidin-4-one]",8700 nM
4,"Cc1nc(-c2ccncc2)cc(=O)[nH]1 [Example 2, 2-methyl-6-(4-pyridyl)pyrimidin-4-one]",3000 nM
5,"CN(C)Cc1cccc(-c2nc(-c3ccncc3)cc(=O)[nH]2)c1 [Example 27, 2-(3-(dimethylaminomethyl)phenyl)-6-(4-pyridyl)pyrimidin-4-one dihydrochloride]",3300 nM
6,"COc1cccc(Nc2nc(-c3ccncc3)cc(=O)[nH]2)c1 [Example 93, 2-(3-methoxyphenylamino)-6-(4-pyridyl)pyrimidin-4-one]",1800 nM
7,"O=c1cc(-c2ccncc2)nc(-c2ccc(O)cc2)[nH]1 [Example 97, 2-(4-hydroxyphenyl)-6-(4-pyridyl)pyrimidin-4-one]",1700 nM
8,"O=c1cc(-c2ccncc2)nc(N2CCCCC2)[nH]1 [Example 69, 2-(1-piperidino)-6-(4-pyridyl)pyrimidin-4-one]",2500 nM
9,"N#Cc1cccc(-c2nc(-c3ccncc3)cc(=O)[nH]2)c1 [Example 22, 2-(3-cyanophenyl)-6-(4-pyridyl)pyrimidin-4-one]",6200 nM
10,"CN(C)c1nc(-c2ccncc2)cc(=O)[nH]1 [Example 44, 2-dimethylamino-6-(4-pyridyl)pyrimidin-4-one]",3700 nM
11,2-(bromophenylamino)-6-(4-pyridyl)pyrimidin-4-one [Example 91],1600 nM
12,"CC(C)c1nc(-c2ccncc2)cc(=O)[nH]1 [Example 5, 2-isopropyl-6-(4-pyridyl)pyrimidin-4-one]",2100 nM
13,"O=c1cc(-c2ccncc2)nc(Cc2cccs2)[nH]1 [Example 42, 6-(4-pyridyl)-2-(2-thienylmethyl)pyrimidin-4-one]",7600 nM
14,"O=c1cc(-c2ccncc2)nc(Cc2ccc(Cl)cc2)[nH]1 [Example 33, 2-(4-chlorobenzyl)-6-(4-pyridyl)pyrimidin-4-one]",5500 nM
15,"Cc1ccc(Cc2nc(-c3ccncc3)cc(=O)[nH]2)cc1 [Example 31, 2-(4-methylbenzyl)-6-(4-pyridyl)pyrimidin-4-one]",2900 nM
16,"Nc1nc(-c2ccncc2)cc(=O)[nH]1 [Example 43, 2-amino-6-(4-pyridyl)pyrimidin-4-one]",5700 nM
17,"CCCN(CCC)c1nc(-c2ccncc2)cc(=O)[nH]1 [Example 85, 2-dipropylamino-6-(4-pyridyl)pyrimidin-4-one]",960 nM
18,"O=c1cc(-c2ccncc2)nc(-c2ccccn2)[nH]1 [Example 37, 2-(2-pyridyl)-6-(4-pyridyl)pyrimidin-4-one]",3800 nM
19,"O=c1cc(-c2ccncc2)nc(CCCc2ccccc2)[nH]1 [Example 36, 2-(3-phenylpropyl)-6-(4-pyridyl)pyrimidin-4-one]",500 nM
20,"Cc1ccccc1-c1nc(-c2ccncc2)cc(=O)[nH]1 [Example 14, 6-(4-pyridyl)-2-(2-tolyl)pyrimidin-4-one]",4000 nM
21,"O=c1cc(-c2ccncc2)nc(Nc2ccccc2)[nH]1 [Example 92, 2-phenylamino-6-(4-pyridyl)pyrimidin-4-one]",1600 nM
